# Values joined by “and” are separate entries in the source; they are usually repeats but may differ in a detail not shown here. Equal entries are not always repeated.
# What was measured:
# ΔNHAB1 with AtPYL1 = biological target: T1, ΔNHAB1 with AtPYL1 (Arabidopsis thaliana, UniProt Q8VZS8); assay: PP2C inhibition assay, HAB1 with AtPYL1; assay type: biochemical
# T1 construct: His; made in house
# Method: (§1) His-tagged receptors and phosphatases were purified using nickel–nitrilotriacetic acid (Ni-NTA) affinity chromatography. Protein integrity was analyzed by SDS–polyacrylamide gel electrophoresis, followed by InstantBlue staining. Phosphatase activity was measured using p-Nitrophenyl Phosphate (pNPP) (25 mM) as substrate, 10 mM MnCl2,1 μM PP2C, and 2 μM of the indicated receptors. Proteins were incubated with the ligands for 10 min at room temperature. pNPP was then added to start the reactions, and the absorbance at 405 nm was monitored for 20 min in a ViktorX5 plate reader. Assays were repeated twice. For dose-response experiments, IC50 values were obtained with GraphPad Prism 9 using a nonlinear regression curve fit. Each ligand concentration was tested in triplicate. Phosphatase activity of ABI1 was measured using RRA(phosphoT)VA peptide as a substrate, as described ([27]).
# ΔNHAB1 with AtPYL5 = biological target: T2, ΔNHAB1 with AtPYL5 (Arabidopsis thaliana, UniProt Q9FLB1); assay: PP2C inhibition assay, HAB1 with AtPYL5; assay type: biochemical
# T2 construct: His; made in house
# Method: as §1
# ΔNHAB1 with AtPYL10 [1] = biological target: T3, ΔNHAB1 with AtPYL10 (Arabidopsis thaliana, UniProt Q8H1R0); assay: PP2C inhibition assay, HAB1 with AtPYL10; assay type: biochemical
# T3 construct: His; made in house
# Method: as §1
# ΔNHAB1 with AtPYL10 [2] = assay: PP2C inhibition assay, HAB1 with AtPYL10; assay type: biochemical, Arabidopsis thaliana; conditions: more sensitive
# Method: as §1
# AtHAB1ΔN with CsPYL1 = assay: PP2C inhibition assay, HAB1 with CsPYL1; assay type: biochemical, Citrus sinensis (CsPYL1); Arabidopsis thaliana (HAB1); conditions: fig. S1C; AtPYL5, AtPYL10 and PYL1-like receptors
# Method: as §1, with “Proteins were incubated with the ligands for 10 min at room temperature. pNPP was then added to start the reactions, and the absorbance at 405 nm was monitored for 20 min in a ViktorX5 plate reader.” left out
# AtHAB1ΔN with CsPYL1^5m [3] = biological target: AtHAB1ΔN with CsPYL1^5m (Citrus sinensis, UniProt A0A067E666, F137I/T135L/T153I/V112L/V168A); assay: PP2C inhibition assay, HAB1 with CsPYL1^5m; assay type: biochemical, Citrus sinensis (CsPYL1^5m); Arabidopsis thaliana (HAB1); conditions: IC50 for inhibition of HAB1 (ΔNHAB1) in the presence of CsPYL1^5m, pNPP as substrate
# Method: as §1, with “Proteins were incubated with the ligands for 10 min at room temperature. pNPP was then added to start the reactions, and the absorbance at 405 nm was monitored for 20 min in a ViktorX5 plate reader.” left out
# AtHAB1ΔN with CsPYL1^5m [4] = assay: PP2C inhibition assay, HAB1 with CsPYL1^5m; assay type: biochemical, Citrus sinensis (CsPYL1^5m); Arabidopsis thaliana (HAB1); conditions: lower for the synthetic receptor
# Method: as §1, with “Proteins were incubated with the ligands for 10 min at room temperature. pNPP was then added to start the reactions, and the absorbance at 405 nm was monitored for 20 min in a ViktorX5 plate reader.” left out
# HAB1 with SlPYL1 = assay: PP2C inhibition assay, HAB1 with SlPYL1; assay type: biochemical, Solanum lycopersicum (SlPYL1); Arabidopsis thaliana (HAB1); conditions: 100 μM SB
# Method: as §1
# [5] = tested on: Arabidopsis thaliana seedlings (WT Col-0, overexpressing lines, receptor mutants); assay: Seedling establishment assay; assay type: in vivo
# Method: Seedling establishment was scored as the percentage of seeds that developed green expanded cotyledons and the first pair of true leaves at 5 or 7 days. Seedling establishment assays in the presence of ABA receptor agonists were performed in 24-well plates, where approximately 25 to 35 seeds per well were sown. Each well contained a different treatment. The experiment was repeated at least twice.
# [6] = tested on: Arabidopsis thaliana seedlings; assay: Root growth assay; assay type: in vivo; conditions: for reduction of root growth: 50 μM SB
# Method: Seedlings were grown on vertically oriented Murashige and Skoog (MS) plates for 4 to 5 days. Afterward, seedlings were transferred to MS supplemented with the indicated concentrations of the different ligands and kept on vertical orientation. Ten days later, the plates were scanned on a flatbed scanner to produce image files suitable for quantitative analysis of root growth using the NIH Image software ImageJ. The experiment was performed in triplicate (n = 13 to 16). Statistical comparisons were performed by either pairwise t tests or one-way ANOVA using GraphPad Prism 9.
# [7] = read-out: inhibition of HAB1 phosphatase activity
# T3 sequence (Q8H1R0 whole entry, stated change not applied): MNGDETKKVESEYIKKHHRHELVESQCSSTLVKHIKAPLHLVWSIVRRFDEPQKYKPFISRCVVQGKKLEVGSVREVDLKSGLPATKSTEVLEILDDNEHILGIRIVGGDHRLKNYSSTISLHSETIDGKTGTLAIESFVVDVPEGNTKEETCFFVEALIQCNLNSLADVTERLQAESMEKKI
# T2 sequence (Q9FLB1 whole entry, stated change not applied): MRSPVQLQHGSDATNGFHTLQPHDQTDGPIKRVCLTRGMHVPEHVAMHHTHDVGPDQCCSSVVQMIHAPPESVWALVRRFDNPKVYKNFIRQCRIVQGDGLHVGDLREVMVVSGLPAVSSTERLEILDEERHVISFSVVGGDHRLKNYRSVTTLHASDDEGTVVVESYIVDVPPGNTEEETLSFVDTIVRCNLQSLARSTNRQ
# Sequence of AtHAB1ΔN with CsPYL1^5m (Citrus sinensis, UniProt A0A067E666, F137I/T135L/T153I/V112L/V168A) (A0A067E666 1-209 V112L/T135L/F137I/T153I/V168A): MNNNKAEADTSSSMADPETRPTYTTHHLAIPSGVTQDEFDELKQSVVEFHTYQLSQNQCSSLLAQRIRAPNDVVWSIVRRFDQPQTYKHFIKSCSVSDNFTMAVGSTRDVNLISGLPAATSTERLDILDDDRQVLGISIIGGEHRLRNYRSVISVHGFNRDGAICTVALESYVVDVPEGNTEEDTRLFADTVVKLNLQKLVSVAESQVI
# Sequence of AtHAB1ΔN with CsPYL1^5m (Citrus sinensis, UniProt A0A067E666, F137I/T135L/T153I/V112L/V168A) (Q9CAJ0 179-511 partner): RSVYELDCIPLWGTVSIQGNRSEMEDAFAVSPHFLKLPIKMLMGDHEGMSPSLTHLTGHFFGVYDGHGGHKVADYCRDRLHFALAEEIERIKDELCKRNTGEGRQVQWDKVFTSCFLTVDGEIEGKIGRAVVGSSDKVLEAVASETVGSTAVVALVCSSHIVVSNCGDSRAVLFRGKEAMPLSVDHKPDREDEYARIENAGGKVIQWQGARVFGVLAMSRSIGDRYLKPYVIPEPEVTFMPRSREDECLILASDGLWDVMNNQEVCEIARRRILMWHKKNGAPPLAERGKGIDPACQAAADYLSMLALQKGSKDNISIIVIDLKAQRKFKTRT
# T1 sequence (Q8VZS8 whole entry, stated change not applied): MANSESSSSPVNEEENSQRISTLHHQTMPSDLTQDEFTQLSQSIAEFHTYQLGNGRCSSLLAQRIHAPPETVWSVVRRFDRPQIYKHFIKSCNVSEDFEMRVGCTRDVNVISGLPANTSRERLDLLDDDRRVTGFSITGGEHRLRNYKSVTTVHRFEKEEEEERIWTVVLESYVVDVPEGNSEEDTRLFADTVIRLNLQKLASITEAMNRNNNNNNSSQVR
structure (smiles),measurement,setting,value
"Cc1cc(=O)n(C)c2ccc(S(=O)(=O)NCc3ccccc3)cc12 [SB, N-benzyl-1,4-dimethyl-2-oxo-1,2-dihydroquinoline-6-sulfonamide]",IC50,"ΔNHAB1 with AtPYL1; Fig. 1B, read-out: IC50 for SB-dependent inhibition of ΔNHAB1 by AtPYL1",10100 ± 1990 nM
same,IC50 of SB relative to IC50 of ABA,"ΔNHAB1 with AtPYL1; PYL1, higher than ABA",circa 30 fold
same,IC50,"ΔNHAB1 with AtPYL5; Fig. 1B, read-out: IC50 for SB-dependent inhibition of ΔNHAB1 by AtPYL5",877 ± 6 nM
same,IC50 of SB relative to IC50 of ABA,"ΔNHAB1 with AtPYL5; PYL5, higher than ABA",circa 30 fold
same,inhibition at 100 µM,ΔNHAB1 with AtPYL5; [7],> 75%
same,IC50 of SB relative to IC50 of ABA,ΔNHAB1 with AtPYL10 [1]; AtPYL10,fourfold higher
same,IC50,"ΔNHAB1 with AtPYL10 [1]; Fig. 1B, read-out: IC50 for SB-dependent inhibition of ΔNHAB1 by AtPYL10",506 ± 56 nM
same,inhibition at 100 µM,ΔNHAB1 with AtPYL10 [1]; [7],> 75%
same,sensitivity to SB of PYL10 relative to PYL1 members,ΔNHAB1 with AtPYL10 [2],20 fold
same,inhibition of HAB1 activity by candidate molecules of the in silico screening,AtHAB1ΔN with CsPYL1,able to inhibit HAB1 activity
same,IC50,AtHAB1ΔN with CsPYL1^5m [3],877 nM and 876 nM
same,IC50 of SB for CsPYL1^5m relative to WT CsPYL1,AtHAB1ΔN with CsPYL1^5m [4],12 fold
same,reduction of phosphatase activity,HAB1 with SlPYL1,around 50%
same,inhibition of seedling establishment,"[5]; 35S:CsPYL1^5m lines, 10 μM SB",sensitive
same,inhibition of seedling establishment,"[5]; 35S:CsPYL1 lines, even by 100 μM SB",not affected
same,dosage required to inhibit seedling establishment relative to ABA,"[5]; CsPYL1^5m lines, higher than ABA",20 fold
same,inhibition of seedling establishment,"[5]; PYL5- and PYL10-overexpressing lines, 50 to 100 μM SB",reduced the seedling establishment
same,inhibition of seedling establishment,"[5]; WT seeds, even at 100 μM",not active
same,reduction of root growth,[6]; PYL5- and PYL10-overexpressing lines,40%
same,reduction of root growth,[6]; WT seedlings,20%
same,effect on root growth,[6]; sextuple 112458 mutant,resistant
